Tests used:
CYP3A4 (CYP3A) = CYP3A4 (CYP3A) (Homo sapiens, UniProt P08684); assay: in vitro; settings: microsomes, pH 7.4;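 further: inhibition of CYP3A-mediated 1-hydroxymidazolam formation after 10 min incubation with NADPH, quantified by HPLC MS relative to metabolite produced without test compound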
[1] = Microsomal stability assay, rat liver microsomes; settings: rat liver microsomal data;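 further: rat liver microsomes (0.25 mg/mL) with about 1 µM compound plus 1 mM NADPH, pH 7.4, 37 °C for 30 min, parent left measured by LC-MS/MS against 0 min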
[2] = Microsomal stability assay, human liver microsomes; settings: human liver microsomal data;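 further: pooled human liver microsomes at 0.25 mg/mL with 1 µM compound and NADPH at 37 °C, pH 7.4, for 30 min, unchanged parent quantified by LC-MS/MS against the 0 min sample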
[3] = system: Aβ40 in conditioned medium of cells stably expressing Amyloid Precursor Protein (APP); assay: In vitro BACE cell-based assay (Aβ40 in conditioned medium, sandwich ELISA); settings: Homo sapiens, HEK293, HEK cell-based assay, IC50's in uM; read-out: HEK cell assay;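 further: compounds added as a dilution series, secreted peptide quantified by europium time-resolved fluorescence readout, potency fitted from percent of control versus compound concentration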
[4] = molecular target: Beta Secretase enzyme (BACE) (Homo sapiens, UniProt P56817); assay: In vitro enzymatic BACE FRET (fluorescence resonance energy transfer) assay; type: biochemical; settings: BACE enzyme assay, IC50's in uM; read-out: BACE1 FRET assay;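 further: fluorescence read after 1 h with 50 nM quenched peptide substrate spanning the BACE cleavage site, in pH 4.2 acetate buffer containing 10% DMSO and nonionic detergent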
Sequence of Beta Secretase enzyme (BACE) (P56817 46-501): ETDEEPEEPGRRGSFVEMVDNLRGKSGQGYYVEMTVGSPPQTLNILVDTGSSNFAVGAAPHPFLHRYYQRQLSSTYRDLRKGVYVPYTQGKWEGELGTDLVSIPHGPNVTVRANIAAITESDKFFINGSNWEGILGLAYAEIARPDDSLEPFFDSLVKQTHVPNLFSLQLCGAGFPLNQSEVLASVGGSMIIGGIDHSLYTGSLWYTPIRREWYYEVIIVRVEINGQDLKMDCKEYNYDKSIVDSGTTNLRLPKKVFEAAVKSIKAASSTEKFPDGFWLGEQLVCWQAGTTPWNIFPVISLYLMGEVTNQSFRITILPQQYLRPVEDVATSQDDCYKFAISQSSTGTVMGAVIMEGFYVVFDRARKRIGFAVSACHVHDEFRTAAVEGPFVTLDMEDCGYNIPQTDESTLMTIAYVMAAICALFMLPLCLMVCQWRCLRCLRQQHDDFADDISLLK

CYP2D6 = CYP2D6 (Homo sapiens, UniProt P10635); assay: CYP2D6 inhibition assay (bufuralol, pooled human liver microsomes); settings: 2D6 IC50 (uM), CYP enzyme inhibition
Sequence of CYP2D6 (P10635 whole entry): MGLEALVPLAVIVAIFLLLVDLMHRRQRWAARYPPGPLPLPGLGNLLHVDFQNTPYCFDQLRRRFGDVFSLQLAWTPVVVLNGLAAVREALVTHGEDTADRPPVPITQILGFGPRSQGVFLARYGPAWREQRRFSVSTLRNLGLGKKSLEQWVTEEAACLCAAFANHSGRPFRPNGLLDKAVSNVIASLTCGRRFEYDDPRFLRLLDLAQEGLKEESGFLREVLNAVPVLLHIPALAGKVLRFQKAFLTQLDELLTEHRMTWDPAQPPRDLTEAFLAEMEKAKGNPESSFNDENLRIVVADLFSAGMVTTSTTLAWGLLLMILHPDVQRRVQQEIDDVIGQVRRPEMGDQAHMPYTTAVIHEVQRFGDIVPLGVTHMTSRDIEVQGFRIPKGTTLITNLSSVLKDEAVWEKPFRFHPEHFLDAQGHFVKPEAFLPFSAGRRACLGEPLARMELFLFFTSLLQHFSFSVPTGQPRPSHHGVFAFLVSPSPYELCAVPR

Sequence of CYP3A4 (CYP3A) (P08684 2-503): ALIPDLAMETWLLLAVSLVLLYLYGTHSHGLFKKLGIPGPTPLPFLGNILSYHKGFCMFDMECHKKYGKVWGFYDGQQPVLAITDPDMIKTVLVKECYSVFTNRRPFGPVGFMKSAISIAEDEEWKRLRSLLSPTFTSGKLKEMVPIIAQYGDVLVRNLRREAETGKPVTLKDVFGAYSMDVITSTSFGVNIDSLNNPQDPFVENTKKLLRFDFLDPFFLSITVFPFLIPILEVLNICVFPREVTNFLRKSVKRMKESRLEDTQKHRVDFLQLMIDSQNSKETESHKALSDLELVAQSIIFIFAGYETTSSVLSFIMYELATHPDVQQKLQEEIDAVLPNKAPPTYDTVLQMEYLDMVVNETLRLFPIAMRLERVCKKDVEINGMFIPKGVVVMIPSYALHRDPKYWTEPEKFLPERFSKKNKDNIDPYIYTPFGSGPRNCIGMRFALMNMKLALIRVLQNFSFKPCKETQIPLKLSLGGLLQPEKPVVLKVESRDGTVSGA

Row | SMILES | IC50 (CYP3A4 (CYP3A)) [µM] | RLM [1] [µL/min/mg] | HLM [2] [µL/min/mg] | IC50 [3] [µM] | IC50 [4] [µM] | IC50 (CYP2D6) [µM]
1 | CC(=S)N[C@@H](Cc1cccc(-c2nccs2)c1)[C@H](O)CN[C@H]1CC2(CCC2)Oc2ncc(CC(C)(C)C)cc21 [compound 793] | 0.1 | 60 | 99 | 0.067 | 0.03 | 0.4
2 | CO[C@H](C)C(=O)N[C@@H](Cc1cncs1)[C@H](O)CN[C@H]1CC2(CCC2)Oc2ncc([C@@H]3CC3(C)C)cc21 [compound 794] | 0.5 | 132 | 205 | 0.009 | 0.005 | 9.8
3 | CC(C)Cc1cnc2c(c1)[C@@H](NC[C@H](O)[C@@H](Cc1cccc(-c3nccs3)c1)NC(=O)[C@H]1CCCO1)CC1(CCC1)O2 [compound 795] | 0.2 | 64 | 127 | 0.206 | 0.286 | 0.6
4 | COC(OC)C(=O)N[C@@H](Cc1cccc(F)c1)[C@H](O)CN[C@H]1CC2(CCC2)Oc2ncc(CC(C)(F)F)cc21 [compound 797] | 1.4 | 199 | 256 | 0.017 | 0.008 | 4.1
5 | COC(OC)C(=O)N[C@@H](Cc1cccc(C#N)c1)[C@H](O)CN[C@H]1CC2(CCC2)Oc2ncc(CC(C)(C)C)cc21 [compound 798] | 0.5 | 423 | 468 | 0.005 | 0.006 | 4.7
6 | COCC(=O)N[C@@H](Cc1cc(F)cc(Cl)c1)[C@H](O)CN[C@H]1CC2(CCC2)Oc2ncc(CC(C)(F)F)cc21 [compound 799] | 0.5 | 236.5 | 663 | 0.019 | 0.008 | 4.95
7 | COCC(=O)N[C@@H](Cc1cccc(Br)c1)[C@H](O)CN[C@H]1CC2(CCC2)Oc2ncc(CC(C)C)cc21 [compound 800] | 0.2 | 459 | 921 | 0.013 | 0.004 | 1.4
8 | CO[C@H](C)C(=O)N[C@@H](Cc1cccc(Br)c1)[C@H](O)CN[C@H]1CC2(CCC2)Oc2ncc(CC(C)C)cc21 [compound 801] | 0.3 | 644 | 399 | 0.118 | 0.016 | 3.8
9 | CC#Cc1cccc(C[C@H](NC(=O)COC)[C@H](O)CN[C@H]2CC3(CCC3)Oc3ncc(CC(C)C)cc32)c1 [compound 802] | 0.1 | 191 | 60.5 | 0.032 | 0.005 | 2.15
10 | COCC(=O)N[C@@H](Cc1cccc(-c2ncco2)c1)[C@H](O)CN[C@H]1CC2(CCC2)Oc2ncc(CC(C)C)cc21 [compound 804, N-((1S,2R)-2-hydroxy-3-(((4′S)-6′-(2-methylpropyl)-3′,4′-dihydrospiro[cyclobutane-1,2′-pyrano[2,3-b]pyridin]-4′-yl)amino)-1-(3-(1,3-oxazol-2-yl)benzyl)propyl)-2-methoxyacetamide] | 0.2 | 43 | 61 | 0.03 | 0.009 | 2.5
11 | CC#Cc1ccc2c(c1)[C@@H](NC[C@@H](O)[C@H](Cc1cc(F)cc(-c3nccs3)c1)NC(=O)COC)CC1(CCC1)O2 [compound 806] | 0.2 | 92 | 61 | 4.15 | 0.669 | 0.6
12 | CCO[C@H](C)C(=O)N[C@@H](Cc1ccc2c(c1)OCO2)[C@H](O)CN[C@H]1CC2(CCC2)Oc2ncc(CC(C)C)cc21 [compound 808] | 0.1 | 179 | 49 | 0.414 | 0.138 | 2.3
13 | CCO[C@@H](C)C(=O)N[C@@H](Cc1ccc2c(c1)OCO2)[C@H](O)CN[C@H]1CC2(CCC2)Oc2ncc(CC(C)C)cc21 [compound 809] | 0.2 | 117 | 33 | 0.513 | 0.269 | 6.7
14 | COCC(=O)N[C@H](Cc1cccc(-c2nccs2)c1)[C@@H](O)CN[C@H]1CC2(CCC2)Oc2ncc(C3CCCC3)cc21 [compound 810] | 0.1 | 271 | 274 | 1.34 | 4.49 | 0.5
15 | CC#Cc1cnc2c(c1)[C@@H](NC[C@@H](O)[C@H](Cc1cccc(-c3nccs3)c1)NC(=O)COC)CC1(CCC1)O2 [compound 811] | 0.3 | 54 | 36 | 0.736 | 0.309 | 1
16 | CC#Cc1cnc2c(c1)[C@@H](NC[C@@H](O)[C@H](Cc1cccc(Br)c1)NC(=O)COC)CC1(CCC1)O2 [compound 812] | 0.4 | 345 | 260 | 0.954 | 0.258 | 3
17 | COCC(=O)N[C@@H](Cc1cccc(-c2nccs2)c1)[C@H](O)CN[C@H]1CC2(CCC2)Oc2ncc(CC(C)(C)F)cc21 [compound 813, N-((1S,2R)-3-(((4′S)-6′-(2-fluoro-2-methylpropyl)-3′,4′-dihydrospiro[cyclobutane-1,2′-pyrano[2,3-b]pyridin]-4′-yl)amino)-2-hydroxy-1-(3-(1,3-thiazol-2-yl)benzyl)propyl)-2-methoxyacetamide] | 0.5 | 27 | 32 | 0.014 | 0.006 | 1.1
18 | COC(OC)C(=O)N[C@@H](Cc1cc(F)cc(-c2nccs2)c1)[C@H](O)CN[C@H]1CC2(CCC2)Oc2ncc(CC(C)(F)F)cc21 [compound 818] | 0.6 | 46 | 41 | 0.059 | 0.013 | 2.3
19 | CC(C)(C)CCC(=O)N[C@@H](Cc1ccccc1)[C@H](O)CN[C@H]1CC2(CCC2)Oc2ncc(CC(C)(C)C)cc21 [compound 819] | 0.2 | 543 | 736 | 0.074 | 0.013 | 2
20 | CO[C@H](C)C(=O)N[C@@H](Cc1cc(F)cc(Cl)c1)[C@H](O)CN[C@H]1CC2(CCC2)Oc2ncc(CC(C)(F)F)cc21 [compound 820] | 0.3 | 324 | 682 | 0.021 | 0.022 | 3.8
21 | C#Cc1cccc(C[C@H](NC(=O)COC)[C@H](O)CN[C@H]2C[C@@]3(CCOC3)Oc3ncc(CC(C)(C)C)cc32)c1 [compound 825, N-((1S,2R)-3-(((3S,4′S)-6′-(2,2-dimethylpropyl)-3′,4,4′,5-tetrahydrospiro[furan-3,2′-pyrano[2,3-b]pyridin]-4′-yl)amino)-1-(3-ethynylbenzyl)-2-hydroxypropyl)-2-methoxyacetamide] | 0.1 | 85 | 17 | 0.009 | 0.005 | 7.3
22 | COCC(=O)N[C@@H](Cc1cccc(-c2nccs2)c1)[C@H](O)CN[C@@H]1C[C@@]2(CCOC2)Oc2ncc(CC(C)(C)C)cc21 [compound 827, N-((1S,2R)-3-(((3S,4′R)-6′-(2,2-dimethylpropyl)-3′,4,4′,5-tetrahydrospiro[furan-3,2′-pyrano[2,3-b]pyridin]-4′-yl)amino)-2-hydroxy-1-(3-(1,3-thiazol-2-yl)benzyl)propyl)-2-methoxyacetamide] | 0.5 | 197 | 97 | 0.007 | 0.006 | 2.1
23 | C#Cc1cccc(C[C@H](NC(=O)C(OC)OC)[C@H](O)CN[C@H]2CC3(CCC3)Oc3ncc(CC(C)(F)F)cc32)c1 [compound 830] | 0.1 | 35 | 28 | 0.023 | 0.007 | 1.3
24 | C#Cc1cccc(C[C@H](NC(=O)COC)[C@H](O)CN[C@H]2CC3(CCC3)Oc3ncc(CC(C)(C)C(F)(F)F)cc32)c1 [compound 838] | 0.1 | 54 | 34 | 0.028 | 0.01 | 2
25 | COCC(=O)N[C@@H](Cc1cc(-c2nccs2)cc(-c2nccs2)c1)[C@H](O)CN[C@H]1CC2(CCC2)Oc2ncc(CC(C)(C)C)cc21 [compound 839] | 0.1 | 57 | 62 | 0.477 | 0.258 | 0.4
26 | C#Cc1cccc(C[C@H](NC(=O)COC)[C@H](O)CN[C@H]2CC3(CCC3)Oc3ncc(CC)cc32)c1 [compound 842] | 0.2 | 57 | 55 | 0.065 | 0.026 | 4.9

Source: patent US8163909B2, “Substituted hydroxyethyl amine compounds as beta-secretase modulators and methods of use” (Amgen Inc., priority 2007, dated 2012)
